According to paper PMC12207590, “Substrate Specificity of the Organic Cation Transporters MATE1 and MATE2K and Functional Overlap with OCT1 and OCT2” (Journal of Medicinal Chemistry, 2025):
Read-outs that look alike come from different tables or passages of the source.

Legend:
hCMEC [1] = assay: TS DPH hCMEC (Table S2); assay type: cell-based, human; set-up: scale not given here
MATE1 [2] = biological target: T1, MATE1 (Homo sapiens, UniProt Q96FL8); assay: Concentration-dependent uptake (Michaelis-Menten) via MATE1 in HEK293 cells; details: for Km: read-out: MATE1 KM
T1 sequence (Q96FL8 1-570): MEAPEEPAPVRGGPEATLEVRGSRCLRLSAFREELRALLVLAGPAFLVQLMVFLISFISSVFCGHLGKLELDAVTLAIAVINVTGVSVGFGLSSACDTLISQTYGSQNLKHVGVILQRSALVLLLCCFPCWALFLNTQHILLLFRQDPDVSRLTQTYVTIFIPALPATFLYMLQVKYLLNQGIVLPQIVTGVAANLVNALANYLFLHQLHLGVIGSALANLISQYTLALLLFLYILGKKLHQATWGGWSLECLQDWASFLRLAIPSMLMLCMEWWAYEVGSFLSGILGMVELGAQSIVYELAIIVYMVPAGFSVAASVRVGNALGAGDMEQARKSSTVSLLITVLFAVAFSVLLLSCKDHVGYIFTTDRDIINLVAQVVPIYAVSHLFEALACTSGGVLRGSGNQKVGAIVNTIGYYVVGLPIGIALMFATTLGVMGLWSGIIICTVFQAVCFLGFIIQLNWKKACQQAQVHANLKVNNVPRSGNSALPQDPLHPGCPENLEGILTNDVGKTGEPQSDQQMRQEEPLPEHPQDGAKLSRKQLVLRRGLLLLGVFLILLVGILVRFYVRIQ

hCMEC [3] = assay: TS MDAI hCMEC (Table S2); assay type: cell-based, human; set-up: scale not given here
MATE2K [4] = biological target: T2, MATE2K (Homo sapiens, UniProt Q86VL8); assay: Concentration-dependent uptake (Michaelis-Menten) via MATE2K in HEK293 cells; details: HEK293, 1 min, net uptake; for Km: read-out: MATE2K KM
[5] = tested on: MATE1, MATE2K, OCT1, OCT2; assay: Substrate specificity and overlap among the four transporters (ratio cutoff 2); assay type: cell-based, human
MATE1 [6] = biological target: T1, MATE1; assay: Uptake ratio in MATE1-overexpressing HEK293 cells vs empty vector (2.5 μM, 1 min, HPLC-MS/MS); assay type: cell-based; details: for MATE1 ratio in this study: Table S1
MATE2K [7] = biological target: T2, MATE2K; assay: Uptake ratio in MATE2K-overexpressing HEK293 cells vs empty vector (2.5 μM, 1 min, HPLC-MS/MS); assay type: cell-based; details: for MATE2K ratio in this study: Table S1
[8] = fold uptake over empty vector, 2.5 μM, 1 min
[9] = uptake ratio MATE1-overexpressing vs empty-vector HEK293 cells, 2.5 μM, 1 min, mean
[10] = uptake ratio MATE2K-overexpressing vs empty-vector HEK293 cells, 2.5 μM, 1 min, mean

T2 sequence (Q86VL8 1-566 isoform Q86VL8-3): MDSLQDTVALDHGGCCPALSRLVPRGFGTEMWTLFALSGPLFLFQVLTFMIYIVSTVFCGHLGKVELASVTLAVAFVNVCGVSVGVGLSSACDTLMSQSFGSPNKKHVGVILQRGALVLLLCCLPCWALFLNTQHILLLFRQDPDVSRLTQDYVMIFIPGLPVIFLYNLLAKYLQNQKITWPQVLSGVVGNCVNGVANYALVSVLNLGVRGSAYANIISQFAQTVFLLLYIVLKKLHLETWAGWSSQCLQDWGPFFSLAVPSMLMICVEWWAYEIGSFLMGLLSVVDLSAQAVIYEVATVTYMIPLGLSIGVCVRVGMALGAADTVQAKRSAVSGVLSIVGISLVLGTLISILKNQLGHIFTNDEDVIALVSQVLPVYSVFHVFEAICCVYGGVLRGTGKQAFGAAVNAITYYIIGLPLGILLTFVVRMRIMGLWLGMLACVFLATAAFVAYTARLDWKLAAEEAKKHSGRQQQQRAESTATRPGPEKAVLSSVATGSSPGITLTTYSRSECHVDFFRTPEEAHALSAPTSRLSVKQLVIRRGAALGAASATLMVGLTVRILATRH

Compound | TS DPH hCMEC (hCMEC [1]; Table S2) | MATE1 Vmax (MATE1 [2]; HEK293, 1 min, net uptake) | TS MDAI hCMEC (hCMEC [3]; Table S2) | MATE2K Vmax (MATE2K [4]) | MATE1 ratio (MATE1 [6]; [8]) | MATE2K ratio (MATE2K [7]; [8]) | Km (MATE1 [2]; HEK293, 1 min, net uptake) [µM] | Km (MATE2K [4]) [µM] | also measured
Cc1c(N)c(=O)n(-c2ccccc2)n1C [4-Aminoantipyrine] | 1.09 | linear | 1.01 | linear |  |  |  |  | 
C[C@H](CS)C(=O)N1CCC[C@H]1C(=O)O [Captopril] |  |  |  |  |  |  |  |  | Substrate specificity among MATE1, MATE2K, OCT1, OCT2 [5]: no substrates of the four transporters
CC1(C)N=C(N)N=C(N)N1c1ccc(Cl)cc1 [Cycloguanil] |  |  |  |  | 21.02 | 10.75 |  |  | MATE1 ratio in this study (MATE1 [6]; 2.5 μM, 1 min): 21.02; MATE2K ratio in this study (MATE2K [7]; 2.5 μM, 1 min): 10.75; Substrate specificity among MATE1, MATE2K, OCT1, OCT2 ([5]; transport ratio cutoff of 2): All four transporters
CC(CCc1ccc(O)cc1)NCCc1ccc(O)c(O)c1 (centres unmarked) [Dobutamine] | 0.67 | 2586 pmol × mg protein^–1 × min^–1 | 0.99 | 493 pmol × mg protein^–1 × min^–1 | 17.41 | 2.77 | 88.6 | 86.4 | 
NCCc1ccc(O)c(O)c1 [Dopamine] |  | 10,148 pmol × mg protein^–1 × min^–1 |  | 1219 pmol × mg protein^–1 × min^–1 | 39.94 | 1.97 | 530 | 961 | 
Nc1nc(=O)n([C@@H]2CS[C@H](CO)O2)cc1F [Emtricitabine] |  | 4523 pmol × mg protein^–1 × min^–1 |  | 2634 pmol × mg protein^–1 × min^–1 | 3.22 | 2.88 | 992 | 873 | MATE1 ratio in this study (MATE1 [6]; 2.5 μM, 1 min): 3.22; MATE2K ratio in this study (MATE2K [7]; 2.5 μM, 1 min): 2.88
CNC[C@H](O)c1ccc(O)c(O)c1 [Epinephrine] |  | 22,773 pmol × mg protein^–1 × min^–1 |  | 2968 pmol × mg protein^–1 × min^–1 |  |  | 1080 | 1510 | 
Nc1ccncc1 [Fampridine (4-aminopyridine), 4-aminopyridine] |  |  |  |  |  |  |  |  | Substrate specificity among MATE1, MATE2K, OCT1, OCT2 ([5]; transport ratio cutoff of 2): OCT2 only
CCCCCCN [Hexylamine] |  |  |  |  |  |  |  |  | MATE1 ratio (MATE1 [6]): 1.21; MATE2K ratio (MATE2K [7]): 1.08; Substrate specificity among MATE1, MATE2K, OCT1, OCT2 ([5]; transport ratio cutoff of 2): OCT1 only
CC(=O)OC(C)C[N+](C)(C)C (centres unmarked) [Methacholine] |  | 17,843 pmol × mg protein^–1 × min^–1 |  | 1240 pmol × mg protein^–1 × min^–1 | 21.58 | 2.57 | 1990 | 1400 | 
CC[N+](CC)(CC)CC(=O)Nc1c(C)cccc1C [N-Ethyl-lidocaine] |  |  |  |  | 36.39 | 14.68 |  |  | Substrate specificity among MATE1, MATE2K, OCT1, OCT2 ([5]; transport ratio cutoff of 2): All four transporters
N=C(N)c1ccc2cc(OC(=O)c3ccc(N=C(N)N)cc3)ccc2c1 [Nafamostat] |  |  |  |  |  |  |  |  | MATE1 ratio (MATE1 [6]): 5.45; MATE2K ratio (MATE2K [7]): 1.64; Substrate specificity among MATE1, MATE2K, OCT1, OCT2 ([5]; transport ratio cutoff of 2): MATE1 only
C=CCN1CC[C@]23c4c5ccc(O)c4O[C@H]2C(=O)CC[C@@]3(O)[C@H]1C5 [Naloxone] | 0.78 |  | 0.44 |  | 1.36 | 1.29 |  |  | 
COCCOC(=O)C1=C(C)NC(C)=C(C(=O)OC(C)C)C1c1cccc([N+](=O)[O-])c1 (centres unmarked) [Nimodipine] | 1.28 |  | 1.25 |  | 1.33 | 1.20 |  |  | 
NC[C@H](O)c1ccc(O)c(O)c1 [Norepinephrine] |  | 18,720 pmol × mg protein^–1 × min^–1 |  | 673 pmol × mg protein^–1 × min^–1 |  |  | 1870 | 1150 | 
CCOC(=O)[C@]1(c2ccccc2)CCC=C[C@H]1NC [Nortilidine] |  |  |  |  |  |  |  |  | TS DPH hCMEC (hCMEC [1]): 0.53; MATE1 ratio (MATE1 [6]): 1.19; TS MDAI hCMEC (hCMEC [3]): 0.52; MATE2K ratio (MATE2K [7]): 1.42
Cc1nccn1CC1CCc2c(c3ccccc3n2C)C1=O (centres unmarked) [Ondansetron] | 0.22 |  | 0.22 |  | 1.19 | 1.24 |  |  | 
Cn1c(=O)[nH]c2ncn(C)c2c1=O [Paraxanthine] | 1.13 |  | 0.93 |  | 1.00 | 0.90 |  |  | 

Compound | TS DPH hCMEC (hCMEC [1]; Table S2) | MATE1 Vmax (MATE1 [2]; HEK293, 1 min, net uptake) | TS MDAI hCMEC (hCMEC [3]; Table S2) | MATE2K Vmax (MATE2K [4]) | MATE1 ratio (MATE1 [6]; [8]) | MATE2K ratio (MATE2K [7]; [8]) | Km (MATE1 [2]; HEK293, 1 min, net uptake) [µM] | Km (MATE2K [4]) [µM] | also measured
Fc1ccc([C@@H]2CCNC[C@H]2COc2ccc3c(c2)OCO3)cc1 [Paroxetine] | 0.13 |  | 0.07 |  | 1.92 | 1.79 |  |  | 
CCOC(=O)C1(c2ccccc2)CCN(C)CC1 [Pethidine] |  |  |  |  |  |  |  |  | Substrate specificity among MATE1, MATE2K, OCT1, OCT2 ([5]; transport ratio cutoff of 2): MATE2K only
[H]/N=C(/N)N/C(=N/[H])NCCc1ccccc1 [Phenformin] |  | 8451 pmol × mg protein^–1 × min^–1 |  | 1361 pmol × mg protein^–1 × min^–1 | 19.54 | 3.01 | 101 | 73.1 | 
CNC[C@H](O)c1cccc(O)c1 [Phenylephrine] | 0.76 | 11,611 pmol × mg protein^–1 × min^–1 | 1.03 | 776 pmol × mg protein^–1 × min^–1 | 13.78 | 1.75 | 474 | 434 | 
CC(C)NCC(O)COc1cccc2[nH]ccc12 (centres unmarked) [Pindolol] | 0.59 |  | 0.83 |  | 1.84 | 1.18 |  |  | 
NC(=O)C1(N2CCCCC2)CCN(CCCC(=O)c2ccc(F)cc2)CC1 [Pipamperone] | 0.42 |  | 0.23 |  | 1.35 | 1.32 |  |  | 
CC(C)(C)NCC(O)c1ccc(O)c(CO)n1 (centres unmarked) [Pirbuterol] | 0.95 |  | 1.31 |  | 12.66 | 6.00 |  |  | 
CCCOC(C(=O)OC1CCN(C)CC1)(c1ccccc1)c1ccccc1 [Propiverine] | 0.33 |  | 0.44 |  | 1.20 | 1.07 |  |  | MATE1 (MATE1 [6]; [9]): 1.2; MATE2 (MATE2K [7]; [10]): 1.07
NC(=O)c1cnccn1 [Pyrazinamide] | 0.95 |  | 1.08 |  | 0.97 | 1.05 |  |  | MATE1 (MATE1 [6]; [9]): 0.97; MATE2 (MATE2K [7]; [10]): 1.05
Cc1ncc(CO)c(CO)c1O [Pyridoxin] |  | 10,014 pmol × mg protein^–1 × min^–1 |  | 593 pmol × mg protein^–1 × min^–1 | 2.33 | 1.18 | 4230 | 495 | MATE1 (MATE1 [6]; [9]): 2.33; MATE2 (MATE2K [7]; [10]): 1.18
OCCOCCN1CCN(C2=Nc3ccccc3Sc3ccccc32)CC1 [Quetiapine] | 0.49 |  | 0.45 |  | 1.10 | 1.28 |  |  | MATE1 (MATE1 [6]; [9]): 1.1; MATE2 (MATE2K [7]; [10]): 1.28
Cc1nc2n(c(=O)c1CCN1CCC(c3noc4cc(F)ccc34)CC1)CCCC2 [Risperidone] |  |  |  |  |  |  |  |  | TS DPH hCMEC (hCMEC [1]): 0.53; MATE1 (MATE1 [6]): 1.07; MATE1 ratio (MATE1 [6]): 1.07; TS MDAI hCMEC (hCMEC [3]): 0.46; MATE2 (MATE2K [7]): 1.37; MATE2K ratio (MATE2K [7]): 1.37
CCCN1CCCC[C@H]1C(=O)Nc1c(C)cccc1C [Ropivacaine] | 0.15 |  | 0.37 |  | 1.22 | 1.49 |  |  | MATE1 (MATE1 [6]; [9]): 1.22; MATE2 (MATE2K [7]; [10]): 1.49
COCCn1c2c([n+](Cc3cnccn3)c1C)C(=O)c1ccccc1C2=O [Sepantronium] |  |  |  | 78.5 pmol × mg protein^–1 × min^–1 |  |  | 80.9 | 8.54 | TS DPH hCMEC (hCMEC [1]): 1.01; MATE1 Vmax (MATE1 [2]): 304 pmol × mg protein^–1 × min^–1; MATE1 (MATE1 [6]): 6.15; MATE1 ratio (MATE1 [6]): 6.15; TS MDAI hCMEC (hCMEC [3]): 0.99; MATE2 (MATE2K [7]): 9.45; MATE2K ratio (MATE2K [7]): 9.45
O=C(O[C@H]1CN2CCC1CC2)N1CCc2ccccc2[C@@H]1c1ccccc1 [Solifenacin] | 0.27 |  | 0.44 |  | 1.28 | 1.22 |  |  | MATE1 (MATE1 [6]; [9]): 1.28; MATE2 (MATE2K [7]; [10]): 1.22
NCCc1ccc(O)cc1 [Tyramine] |  | 5948 pmol × mg protein^–1 × min^–1 |  | 2868 pmol × mg protein^–1 × min^–1 |  |  | 136 | 1060 | MATE1 ratio in this study (MATE1 [6]; 2.5 μM, 1 min): 10.06; MATE1 (MATE1 [6]; [9]): 10.06; MATE2K ratio in this study (MATE2K [7]; 2.5 μM, 1 min): 1.39; MATE2 (MATE2K [7]; [10]): 1.39
thyrotropin-releasing hormone |  |  |  |  |  |  |  |  | Substrate specificity among MATE1, MATE2K, OCT1, OCT2 ([5]; transport ratio cutoff of 2): no substrates of the four transporters
